Experiments:
SARS-CoV2 = SARS-CoV2 infection of human ACE2 mice, paquinimod nasal drop group versus control; type: in vivo
MHV [1] = type: in vivo; details: IFNar knockout mice infected with MHV, paquinimod nasal drop group, FIG. 17
IAV = system: IAV; parameters: species or system mice; details: mouse, in vivo
MHV [2] = type: in vivo, mice
[3] = SARS-CoV2 pneumonia animal model
[4] = MHV-infected lung tissues of IFNar knockout mice, FIG. 18

Compound: CCc1cccc2c1c(O)c(C(=O)N(CC)c1ccccc1)c(=O)n2C [paquinimod]
- replication of SARS-CoV-2 (SARS-CoV2; FIG. 18): inhibiting replication
- inflammation level (SARS-CoV2; [3]): decreasing the inflammation level
- virus titer in tissues (SARS-CoV2; [3]): inhibits the virus titer in tissues
- survival rate (MHV [1]): increased survival rate
- survival rate (IAV): no significant difference
- inflammation and lung damage caused by inflammation (MHV [2]; [4]): reducing inflammation and lung damage
- lung S100A8 gene expression (MHV [2]; [4]): not up-regulated
- activation of neutrophils caused by coronavirus infection (MHV [2]; coronavirus-infected mice): inhibit the activation of neutrophils
- replication of MHV (MHV [2]; lung tissues of IFNar knockout mice, FIG. 18): inhibiting replication
